# Patent publication US20060069132A1, “Azolecarboxamide herbicides” (priority 2004, published 2006)
# Columns and labels:
# barnyardgrass [1] = test: Test C flooded paddy test; format: in vivo, Echinochloa crus-galli
# Procedure, shortened: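 Weeds and wheat were sprayed after emergence, at a height of 2 to 18 cm (1–4 leaves), and paddy barnyardgrass was flooded and treated at two leaves. Assessment took place 12–14 days later in the greenhouse on a 0-to-100 visual control scale. A dash means no result was obtained.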
# Surinam grass = test: Test B pre-/postemergence herbicide test; format: in vivo, Urochloa decumbens; conditions: for Surinam Grass plant response rating: postemergence, visual rating, scale 0 (no effect) to 100 (complete control)
# Procedure, shortened: (§1)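 Greenhouse pot assay with simultaneous preemergence (treated seed) and postemergence (2–18 cm seedlings) applications of surfactant-containing, non-phytotoxic solvent formulations. Response scored visually 13–15 days later on a 0–100 scale, 100 meaning complete control.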
# lambsquarters = test: Test B pre-/postemergence herbicide test; format: in vivo, Chenopodium album; conditions: for Lambsquarters plant response rating: postemergence, visual rating, scale 0 (no effect) to 100 (complete control)
# Procedure, shortened: as §1
# rice [2] = test: Test C flooded paddy test; format: in vivo, Oryza sativa
# Procedure, shortened: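 Plants were grown to the 1- to 4-leaf stage (2–18 cm) and then treated postemergence, or grown to the 2-leaf stage for the flooded paddy test. They were held in a greenhouse for 12 to 14 days and then scored by eye against controls, where 0 is no effect and 100 is complete control.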
# barnyardgrass [3] = test: Test B flooded paddy test; format: in vivo, Echinochloa crus-galli; conditions: 1000 g ai/ha, visual rating, scale 0 to 100 (0 no effect, 100 complete control), 13 to 15 days
# Procedure, shortened: (§2)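 Plants grow to 1- to 4-leaf stage (2–18 cm) for postemergence spraying, or to 2-leaf stage for the paddy test. Formulated compound is applied. Greenhouse holding lasts 13–15 days. Response is scored visually relative to controls, 0 no effect to 100 complete control; a dash means no result.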
# barnyardgrass [4] = test: Test B pre-/postemergence herbicide test; format: in vivo, Echinochloa crus-galli; conditions: for Barnyardgrass plant response rating: postemergence, visual rating, scale 0 (no effect) to 100 (complete control)
# Procedure, shortened: (§3)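 Species tested were Echinochloa crus-galli, Ipomoea coccinea, Xanthium strumarium and Oryza sativa, treated both before emergence and at the 1- to 4-leaf stage; rice and barnyardgrass were also tested under flooding at 2 leaves. Greenhouse incubation lasted 13–15 days before visual 0–100 scoring.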
# rice [5] = test: Test B pre-/postemergence herbicide test; format: in vivo, Oryza sativa; conditions: preemergence
# Procedure, shortened: as §3
# rice [6] = test: Test B flooded paddy test; format: in vivo, Oryza sativa; conditions: 1000 g ai/ha, visual rating, scale 0 to 100 (0 no effect, 100 complete control), 13 to 15 days
# Procedure, shortened: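 Greenhouse test; postemergence application to plants at 1–4 leaves (2–18 cm); paddy species at 2 leaves; evaluated visually vs controls at 13–15 days; scale 0–100 (100 = complete control).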
# wild oat = test: Test B postemergence herbicide test; format: in vivo, Avena fatua; conditions: postemergence, visual rating, scale 0 (no effect) to 100 (complete control)
# Procedure, shortened: (§4)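 After treating 2-leaf paddy plants or 2–18 cm postemergence plants (1 to 4 leaves) with formulated chemical, researchers kept them in a greenhouse for 13–15 days. Effects were judged visually versus controls: 0 indicates none, 100 total control.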
# cocklebur = test: Test B pre-/postemergence herbicide test; format: in vivo, Xanthium strumarium; conditions: for Cocklebur plant response rating: postemergence, visual rating, scale 0 (no effect) to 100 (complete control)
# Procedure, shortened: as §3
# corn = test: Test B pre-/postemergence herbicide test; format: in vivo, Zea mays; conditions: for Corn plant response rating: postemergence, visual rating, scale 0 (no effect) to 100 (complete control)
# Procedure, shortened: as §1
# [7] = test system: smallflower umbrella sedge; test: Test C flooded paddy test; format: in vivo, Cyperus difformis
# ducksalad [8] = test: Test C flooded paddy test; format: in vivo, Heteranthera limosa
# wheat = test: Test B postemergence herbicide test; format: in vivo, Triticum aestivum; design: key to Wheat plant response rating: 0 = no effect, 100 = complete control; conditions: postemergence, visual rating, scale 0 (no effect) to 100 (complete control)
# Procedure, shortened: as §4
# ducksalad [9] = test: Test B flooded paddy test; format: in vivo, Heteranthera limosa; conditions: 1000 g ai/ha, visual rating, scale 0 to 100 (0 no effect, 100 complete control), 13 to 15 days
# Procedure, shortened: as §2
# giant foxtail = test: Test B pre-/postemergence herbicide test; format: in vivo, Setaria faberi; conditions: for Foxtail, Giant plant response rating: postemergence, visual rating, scale 0 (no effect) to 100 (complete control)
# Procedure, shortened: as §1
# pigweed = test: Test B pre-/postemergence herbicide test; format: in vivo, Amaranthus retroflexus; conditions: for Pigweed plant response rating: postemergence, visual rating, scale 0 (no effect) to 100 (complete control)
# Procedure, shortened: as §1
# blackgrass = test: Test B postemergence herbicide test; format: in vivo, Alopecurus myosuroides; conditions: postemergence, visual rating, scale 0 (no effect) to 100 (complete control)
# Procedure, shortened: as §2
# morningglory = test: Test B pre-/postemergence herbicide test; format: in vivo, Ipomoea coccinea; conditions: for Morningglory plant response rating: postemergence, visual rating, scale 0 (no effect) to 100 (complete control)
# Procedure, shortened: as §3
# velvetleaf = test: Test B pre-/postemergence herbicide test; format: in vivo, Abutilon theophrasti; conditions: for Velvetleaf plant response rating: postemergence, visual rating, scale 0 (no effect) to 100 (complete control)
# Procedure, shortened: as §1
# large crabgrass = test: Test B pre-/postemergence herbicide test; format: in vivo, Digitaria sanguinalis; conditions: for Crabgrass, Large plant response rating: postemergence, visual rating, scale 0 (no effect) to 100 (complete control)
# Procedure, shortened: as §1
# [10] = test system: small flower umbrella sedge; test: Test B flooded paddy test; format: in vivo, Cyperus difformis; conditions: 1000 g ai/ha, visual rating, scale 0 to 100 (0 no effect, 100 complete control), 13 to 15 days
# Procedure, shortened: as §2
# [11] = 62 g ai/ha, scale 0 to 100 (0 no effect, 100 complete control)
# [12] = 250 g ai/ha, scale of 0 to 100, 0 is no effect, 100 is complete control
# [13] = 500 g ai/ha, visual rating after 12 to 14 days, scale 0 to 100 (0 no effect, 100 complete control)
# [14] = 125 g ai/ha, 0 = no effect, 100 = complete control, preemergence
# [15] = 500 g ai/ha, visual rating 0-100, 0 no effect, 100 complete control, preemergence
# [16] = 125 g ai/ha, scale 0 to 100 (0 no effect, 100 complete control)
compound,measurement,setting,value
CCNC(=O)c1cccc(NC(=O)c2cn(C(C)(C)C)nc2C)c1 [Compound 183],Barnyardgrass plant response rating,barnyardgrass [1]; [11],0
same,Barnyardgrass plant response rating,"barnyardgrass [1]; 125 g ai/ha, scale of 0 to 100, 0 is no effect, 100 is complete control",0
same,Barnyardgrass plant response rating,barnyardgrass [1]; [12],0
same,"Plant response rating, Barnyardgrass",barnyardgrass [1]; [13],0
same,Surinam Grass plant response rating (0 to 100 scale),Surinam grass; [14],20
same,"Plant response rating, Surinam Grass",Surinam grass; [15],50
same,Surinam Grass plant response rating,Surinam grass; 125 g ai/ha,0
same,Surinam Grass plant response rating,Surinam grass; 500 g ai/ha,20
same,Lambsquarters plant response rating (0 to 100 scale),lambsquarters; [14],50
same,"Plant response rating, Lambsquarters",lambsquarters; [15],100
same,Lambsquarters plant response rating,lambsquarters; 125 g ai/ha,70
same,Lambsquarters plant response rating,lambsquarters; 500 g ai/ha,80
same,Rice plant response rating,rice [2]; [11],0
same,Rice plant response rating,rice [2]; [16],0
same,Rice plant response rating,rice [2]; [12],0
same,"Plant response rating, Rice",rice [2]; [13],0
same,Barnyardgrass plant response rating,barnyardgrass [3],60
same,Barnyardgrass plant response rating (0 to 100 scale),barnyardgrass [4]; [14],20
same,"Plant response rating, Barnyardgrass",barnyardgrass [4]; [15],70
same,Barnyardgrass plant response rating,barnyardgrass [4]; 125 g ai/ha,0
same,Barnyardgrass plant response rating,barnyardgrass [4]; 500 g ai/ha,0
same,Rice plant response rating (0 to 100 scale),"rice [5]; 125 g ai/ha, 0 = no effect, 100 = complete control",0
same,"Plant response rating, Rice","rice [5]; 500 g ai/ha, visual rating 0-100, 0 no effect, 100 complete control",80
same,Rice plant response rating,rice [6],0
same,"Oat, Wild plant response rating",wild oat; 125 g ai/ha,10
same,"Oat, Wild plant response rating",wild oat; 500 g ai/ha,20
same,Cocklebur plant response rating (0 to 100 scale),cocklebur; [14],0
same,"Plant response rating, Cocklebur",cocklebur; [15],0
same,Cocklebur plant response rating,cocklebur; 125 g ai/ha,50
same,Cocklebur plant response rating,cocklebur; 500 g ai/ha,90
same,Corn plant response rating (0 to 100 scale),corn; [14],0
same,"Plant response rating, Corn",corn; [15],0
same,Corn plant response rating,corn; 125 g ai/ha,20
same,Corn plant response rating,corn; 500 g ai/ha,20
same,"Sedge, Umbrella plant response rating",[7]; [11],0
same,"Sedge, Umbrella plant response rating",[7]; [16],0
same,"Sedge, Umbrella plant response rating",[7]; [12],10
same,"Plant response rating, Sedge, Umbrella",[7]; [13],50
same,Ducksalad plant response rating,ducksalad [8]; [11],0
same,Ducksalad plant response rating,ducksalad [8]; [16],0
same,Ducksalad plant response rating,ducksalad [8]; [12],10
same,"Plant response rating, Ducksalad",ducksalad [8]; [13],20
same,Wheat plant response rating,wheat; 125 g ai/ha,0
same,Wheat plant response rating,wheat; 500 g ai/ha,0
same,Ducksalad plant response rating,ducksalad [9],70
same,"Foxtail, Giant plant response rating (0 to 100 scale)",giant foxtail; [14],0
same,"Plant response rating, Foxtail, Giant",giant foxtail; [15],80
same,"Foxtail, Giant plant response rating",giant foxtail; 125 g ai/ha,20
same,"Foxtail, Giant plant response rating",giant foxtail; 500 g ai/ha,30
same,Pigweed plant response rating (0 to 100 scale),pigweed; [14],100
same,"Plant response rating, Pigweed",pigweed; [15],100
same,Pigweed plant response rating,pigweed; 125 g ai/ha,70
same,Pigweed plant response rating,pigweed; 500 g ai/ha,80
same,Blackgrass plant response rating,blackgrass; 125 g ai/ha,0
same,Blackgrass plant response rating,blackgrass; 500 g ai/ha,10
same,Morningglory plant response rating (0 to 100 scale),morningglory; [14],10
same,"Plant response rating, Morningglory",morningglory; [15],10
same,Morningglory plant response rating,morningglory; 125 g ai/ha,60
same,Morningglory plant response rating,morningglory; 500 g ai/ha,70
same,Velvetleaf plant response rating (0 to 100 scale),velvetleaf; [14],10
same,"Plant response rating, Velvetleaf",velvetleaf; [15],50
same,Velvetleaf plant response rating,velvetleaf; 125 g ai/ha,40
same,Velvetleaf plant response rating,velvetleaf; 500 g ai/ha,60
same,"Crabgrass, Large plant response rating (0 to 100 scale)",large crabgrass; [14],10
same,"Plant response rating, Crabgrass, Large",large crabgrass; [15],90
same,"Crabgrass, Large plant response rating",large crabgrass; 125 g ai/ha,20
same,"Crabgrass, Large plant response rating",large crabgrass; 500 g ai/ha,30
same,"Sedge, Umbrella plant response rating",[10],80
